Laboratory results as given in ChEMBL document CHEMBL1201862, “PubChem BioAssay data set” (2004).
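Compound exposure: 48 hours, 5 concentrations, 96-well plates. Here, GI50 denotes the concentration required for 50% inhibition of growth.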 The source made the active and inactive calls. Cut-off read from the data, not from the text of the source: active = GI50 up to about 1.1 µM and inactive = higher.

Columns and labels:
Assay in all cases: NCI tumour cell line growth inhibition, 48 h
[1] = tested on: ACHN
[2] = tested on: HCT-15
[3] = tested on: SK-MEL-5
[4] = tested on: M14
[5] = tested on: LOX IMVI
[6] = tested on: SK-OV-3
[7] = tested on: OVCAR-3
[8] = tested on: COLO 205
[9] = tested on: UACC-62
[10] = tested on: DU-145
[11] = tested on: SN12C
[12] = tested on: MDA-N
[13] = tested on: A549
[14] = tested on: HL-60
[15] = tested on: NCI-H460
[16] = tested on: UO-31
[17] = tested on: 786-0
[18] = tested on: SR
[19] = tested on: NCI-H23
[20] = tested on: HOP-92
[21] = tested on: NCI/ADR-RES
[22] = tested on: PC-3
[23] = tested on: NCI-H226
[24] = tested on: OVCAR-8
[25] = tested on: KM12
[26] = tested on: Hs-578T
[27] = tested on: SNB-75
[28] = tested on: MOLT-4
[29] = tested on: IGROV-1
[30] = tested on: TK-10
[31] = tested on: SF-268
[32] = tested on: K562
[33] = tested on: OVCAR-5
[34] = tested on: SW-620
[35] = tested on: EKVX
[36] = tested on: SNB-19
[37] = tested on: CCRF-CEM
[38] = tested on: SF-539
[39] = tested on: BT-549
[40] = tested on: HT-29
[41] = tested on: SF-295
[42] = tested on: UACC-257
[43] = tested on: T47D
[44] = tested on: MDA-MB-435
[45] = tested on: A498
[46] = tested on: MDA-MB-231
[47] = tested on: SK-MEL-2
[48] = tested on: MCF7
[49] = tested on: HCT-116
[50] = tested on: HOP-62
[51] = tested on: U-251
[52] = tested on: RPMI-8226
[53] = tested on: SK-MEL-28
[54] = tested on: CAKI-1
[55] = tested on: NCI-H522
[56] = tested on: Malme-3M
[57] = tested on: HCC 2998
[58] = tested on: OVCAR-4
[59] = tested on: RXF 393

CC1(C)CC(=O)c2c(nc3ccc4ccccc4c3c2-c2ccc(NC(=O)CCCCC(=O)Nc3ccc(-c4c5c(nc6ccc7ccccc7c46)CC(C)(C)CC5=O)cc3)cc2)C1
GI50 [1]: > 100 µM (inactive) | GI50 [2]: > 100 µM | GI50 [3]: > 100 µM (inactive) | GI50 [4]: > 100 µM (inactive) | GI50 [5]: > 100 µM (inactive) | GI50 [6]: > 100 µM (inactive) | GI50 [7]: > 100 µM (inactive) | GI50 [8]: > 100 µM (inactive) | GI50 [9]: > 100 µM (inactive) | GI50 [10]: > 100 µM (inactive) | GI50 [11]: > 100 µM (inactive) | GI50 [12]: > 100 µM (inactive) | GI50 [13]: > 100 µM (inactive) | GI50 [14]: > 100 µM (inactive) | GI50 [15]: > 100 µM (inactive) | GI50 [16]: > 100 µM (inactive) | GI50 [17]: > 100 µM (inactive) | GI50 [18]: > 100 µM (inactive) | GI50 [19]: > 100 µM (inactive) | GI50 [20]: > 100 µM (inactive) | GI50 [21]: > 100 µM (inactive) | GI50 [22]: > 100 µM (inactive) | GI50 [23]: > 100 µM (inactive) | GI50 [24]: > 100 µM (inactive) | GI50 [25]: > 100 µM (inactive) | GI50 [26]: > 100 µM (inactive) | GI50 [27]: > 100 µM (inactive) | GI50 [28]: > 100 µM (inactive) | GI50 [29]: > 100 µM (inactive) | GI50 [30]: > 100 µM (inactive) | GI50 [31]: > 100 µM (inactive) | GI50 [32]: > 100 µM (inactive) | GI50 [33]: > 100 µM (inactive) | GI50 [34]: > 100 µM (inactive) | GI50 [35]: > 100 µM (inactive) | GI50 [36]: > 100 µM (inactive) | GI50 [37]: > 100 µM (inactive) | GI50 [38]: > 100 µM (inactive) | GI50 [39]: > 100 µM (inactive) | GI50 [40]: > 100 µM (inactive) | GI50 [41]: > 100 µM (inactive) | GI50 [42]: > 100 µM (inactive) | GI50 [43]: > 100 µM (inactive) | GI50 [44]: > 100 µM (inactive) | GI50 [45]: > 100 µM (inactive) | GI50 [46]: > 100 µM (inactive) | GI50 [47]: > 100 µM (inactive) | GI50 [48]: > 100 µM (inactive) | GI50 [49]: > 100 µM (inactive) | GI50 [50]: > 100 µM (inactive) | GI50 [51]: > 100 µM (inactive) | GI50 [52]: > 100 µM (inactive) | GI50 [53]: > 100 µM (inactive) | GI50 [54]: > 100 µM (inactive)

CC(C)=CCOC(=O)C(C)=[N+]=[N-]
GI50 [1]: > 100 µM (inactive) | GI50 [55]: > 100 µM (inactive) | GI50 [2]: > 100 µM | GI50 [3]: > 100 µM (inactive) | GI50 [56]: > 100 µM (inactive) | GI50 [5]: > 100 µM (inactive) | GI50 [7]: > 100 µM (inactive) | GI50 [8]: > 100 µM (inactive) | GI50 [9]: > 100 µM (inactive) | GI50 [10]: > 100 µM (inactive) | GI50 [11]: > 100 µM (inactive) | GI50 [12]: > 100 µM (inactive) | GI50 [14]: 42.6 µM (inactive) | GI50 [15]: > 100 µM (inactive) | GI50 [16]: > 100 µM (inactive) | GI50 [17]: > 100 µM (inactive) | GI50 [18]: > 100 µM (inactive) | GI50 [19]: > 100 µM (inactive) | GI50 [21]: > 100 µM (inactive) | GI50 [22]: > 100 µM (inactive) | GI50 [23]: > 100 µM (inactive) | GI50 [24]: > 100 µM (inactive) | GI50 [25]: > 100 µM (inactive) | GI50 [26]: > 100 µM (inactive) | GI50 [27]: > 100 µM (inactive) | GI50 [28]: 59 µM (inactive) | GI50 [29]: > 100 µM (inactive) | GI50 [30]: > 100 µM (inactive) | GI50 [31]: > 100 µM (inactive) | GI50 [32]: > 100 µM (inactive) | GI50 [33]: > 100 µM (inactive) | GI50 [34]: > 100 µM (inactive) | GI50 [57]: > 100 µM (inactive) | GI50 [35]: > 100 µM (inactive) | GI50 [36]: > 100 µM (inactive) | GI50 [39]: > 100 µM (inactive) | GI50 [58]: > 100 µM (inactive) | GI50 [40]: > 100 µM (inactive) | GI50 [41]: > 100 µM (inactive) | GI50 [42]: > 100 µM (inactive) | GI50 [43]: > 100 µM (inactive) | GI50 [44]: > 100 µM (inactive) | GI50 [45]: > 100 µM (inactive) | GI50 [46]: > 100 µM (inactive) | GI50 [48]: > 100 µM (inactive) | GI50 [49]: > 100 µM (inactive) | GI50 [50]: > 100 µM (inactive) | GI50 [51]: > 100 µM (inactive) | GI50 [52]: > 100 µM (inactive) | GI50 [53]: > 100 µM (inactive) | GI50 [54]: > 100 µM (inactive)

Cc1cc2c(cc1-c1cc3c(cc1C)C(C(C)C)=C(O)C(=O)/C3=C\Nc1c3ccccc3nc3ccccc13)/C(=C/Nc1c3ccccc3nc3ccccc13)C(=O)C(O)=C2C(C)C
GI50 [1]: 1.49 µM (inactive) | GI50 [55]: 1.13 µM (inactive) | GI50 [2]: 3.85 µM | GI50 [3]: 3.99 µM (inactive) | GI50 [4]: 2.67 µM (inactive) | GI50 [56]: 2.2 µM (inactive) | GI50 [6]: 3.34 µM (inactive) | GI50 [7]: 3.47 µM (inactive) | GI50 [8]: 1.99 µM (inactive) | GI50 [9]: 3.66 µM (inactive) | GI50 [10]: 6.3 µM (inactive) | GI50 [11]: 4.47 µM (inactive) | GI50 [12]: 4.06 µM (inactive) | GI50 [13]: 2.97 µM (inactive) | GI50 [14]: 2.78 µM (inactive) | GI50 [15]: 2.09 µM (inactive) | GI50 [16]: 3.03 µM (inactive) | GI50 [17]: 2.72 µM (inactive) | GI50 [18]: 3.91 µM (inactive) | GI50 [19]: 3.66 µM (inactive) | GI50 [20]: 5.73 µM (inactive) | GI50 [21]: 2.59 µM (inactive) | GI50 [22]: 3.25 µM (inactive) | GI50 [23]: 1.26 µM (inactive) | GI50 [24]: 2.3 µM (inactive) | GI50 [25]: 3.09 µM (inactive) | GI50 [26]: 3.77 µM (inactive) | GI50 [27]: 2.32 µM (inactive) | GI50 [28]: 3.27 µM (inactive) | GI50 [59]: 5.24 µM (inactive) | GI50 [29]: 2.64 µM (inactive) | GI50 [31]: 3.36 µM (inactive) | GI50 [33]: 4.4 µM (inactive) | GI50 [34]: 2.9 µM (inactive) | GI50 [35]: 1.75 µM (inactive) | GI50 [36]: 3.82 µM (inactive) | GI50 [37]: 3.51 µM (inactive) | GI50 [38]: 3.86 µM (inactive) | GI50 [39]: 5.85 µM (inactive) | GI50 [58]: 3.15 µM (inactive) | GI50 [40]: 1.54 µM (inactive) | GI50 [41]: 2.31 µM (inactive) | GI50 [42]: 4.34 µM (inactive) | GI50 [43]: 6.17 µM (inactive) | GI50 [44]: 4.6 µM (inactive) | GI50 [45]: 7.03 µM (inactive) | GI50 [46]: 4.55 µM (inactive) | GI50 [47]: 5.58 µM (inactive) | GI50 [48]: 3.17 µM (inactive) | GI50 [49]: 6.25 µM (inactive) | GI50 [50]: 4.26 µM (inactive) | GI50 [51]: 4.02 µM (inactive) | GI50 [52]: 4.52 µM (inactive) | GI50 [53]: 7.03 µM (inactive) | GI50 [54]: 3.03 µM (inactive)
